# Assay results published in Sander's compilation of Henry's law constants (doi:10.1021/je300954s).
# Test: Henry solubility constant Hcp at 298.15 K (mol/(m3 Pa))
# Conditions: reference: Lee et al. (2012)
row,SMILES,Henry solubility constant Hcp
1,"Clc1cccc(Cl)c1Cl [1,2,3-trichlorobenzene]",0.008
2,"Clc1cc(Cl)c(Cl)cc1Cl [1,2,4,5-tetrachlorobenzene]",0.0066
3,"c1ccc2c(c1)Cc1ccccc1-2 [2,3-benzindene]",0.32
4,"Cc1c([N+](=O)[O-])c(C)c([N+](=O)[O-])c(C(C)(C)C)c1[N+](=O)[O-] [2,4,6-trinitro-1,3-dimethyl-5-tert-butylbenzene]",0.32
5,c1cc2c3c(cccc3c1)CC2 [acenaphthene],0.26
6,c1ccc2cc3ccccc3cc2c1 [anthracene],0.16
7,c1ccc2c(c1)cc1ccc3cccc4ccc2c1c34 [benzo[a]pyrene],6.2
8,c1ccc2c(c1)-c1cccc3cccc-2c13 [benzo[jk]fluorene],0.34
9,c1ccc2cc3c(cc2c1)-c1cccc2cccc-3c12 [benzo[k]fluoranthene],10
10,CCCCOC(=O)c1ccccc1C(=O)OCc1ccccc1 [butyl benzyl phthalate],100
11,c1ccc2c(c1)ccc1c3ccccc3ccc21 [chrysene],2.1
12,CCCCOC(=O)c1ccccc1C(=O)OCCCC [dibutyl phthalate],9.3
13,CC(=O)c1c(C)c([N+](=O)[O-])c(C(C)(C)C)c([N+](=O)[O-])c1C [musk ketone],3
14,c1ccc2ccccc2c1 [naphthalene],0.06
15,c1ccc2c(c1)ccc1ccccc12 [phenanthrene],0.18
